Reference: paper PMC8015083 (ACS Omega, 2021)
Values after ≈ are worked out from the molar mass of the structure shown. Values joined by “and” are separate entries in the source; they are usually repeats but may differ in a detail not shown here. Identical values can stand only once. Like-named read-outs stand apart in the source and are kept apart here.

Key:
[1] = system: C. neoformans; assay: microbe, parasite or virus in culture; assay type: cell-based, Cryptococcus neoformans; settings: for MIC80: Cryptococcus neoformans
[2] = system: M. pachydermatis; assay: microbe, parasite or virus in culture; assay type: cell-based; settings: Malassezia pachydermatis, read-out: MIC80 in M. pachydermatis
[3] = system: C. neoformans KN99; assay type: cell-based, Cryptococcus neoformans
[4] = system: C. neoformans KN99; assay: microbe, parasite or virus in culture; assay type: cell-based; settings: Cryptococcus neoformans, KN99, 48 h, read-out: C. neo MIC80
[5] = human, in vivo; cited from earlier work
[6] = system: C. neoformans aox1Δ strain; assay type: cell-based, Cryptococcus neoformans
[7] = system: C. neoformans KN99; assay type: cell-based, Cryptococcus neoformans; remark: listed apart in the source
[8] = system: M. furfur; assay: microbe, parasite or virus in culture; assay type: cell-based; settings: Malassezia furfur, read-out: MIC80 in M. furfur

C[C@@H]1[C@H](O)[C@@H](C)/C=C/C=C/C=C/C=C/C=C/C=C/C=C/[C@H](O[C@@H]2O[C@H](C)[C@@H](O)[C@H](N)[C@@H]2O)C[C@@H]2O[C@](O)(C[C@@H](O)C[C@@H](O)[C@H](O)CC[C@@H](O)C[C@@H](O)CC(=O)O[C@H]1C)C[C@H](O)[C@H]2C(=O)O [AMB, amphotericin B]
MIC80 ([1]; read-out: MIC80 alone, AMB): 1.5 µM (≈ 1.39 µg/mL)

Cc1cc(-c2ccc(S(=O)(=O)O)cc2)c2ccc3c(-c4ccc(S(=O)(=O)O)cc4)cc(C)nc3c2n1 [BCS, bathocuproinedisulfonic acid]
MIC80 alone, BCS [1]: >200 µM

Cc1cc(C2CCCCC2)n(O)c(=O)c1 [CPO, Ciclopirox olamine]
MIC80 [2]: ~25 µM (≈ 5.18 µg/mL) | rescue of inhibition by exogenous copper [3]: partially rescued | rescue of inhibition by exogenous iron [3]: fully rescued | rescue of inhibition by zinc [3]: did not rescue | MIC [4]: 0.87 µM and 0.18 µg/mL | tolerability of oral dosing [5]: well tolerated | FICI [1]: 0.75 | MIC80 in aox1Δ strain compared with wild type [6]: no difference in sensitivity | killing of the cells [7]: 99.9% | MIC80 [8]: ~25 µM (≈ 5.18 µg/mL)

Cc1c(O)c(=O)ccn1C [DFP, deferiprone]
MIC80 alone, DFP [1]: 200 µM (≈ 27.8 µg/mL) | MIC80 ([1]; read-out: MIC80 alone, DFP): > 200 µM

OC(Cn1cncn1)(Cn1cncn1)c1ccc(F)cc1F [FLC, fluconazole]
MIC80 ([1]; read-out: MIC80 alone, FLC): 3 µM (≈ 0.919 µg/mL)

O=C(NO)c1ccccc1O [SHAM, salicylhydroxamic acid]
MIC80 ([1]; read-out: MIC80 alone, SHAM): 2000 µM (≈ 306 µg/mL)

Cc1cc(CC2CCCCC2)n(O)c(=O)c1 [SLU-2321]
rescue of inhibition by exogenous copper [3]: only partially rescued | rescue of inhibition by exogenous iron [3]: fully rescued | rescue of inhibition by zinc [3]: did not rescue | FICI [1]: 0.63 | FICI in combination with CPO [1]: 0.51

Cc1cc(Cc2ccc(Cl)cc2)n(O)c(=O)c1 [SLU-2707]
rescue of inhibition by exogenous copper [3]: did not rescue | rescue of inhibition by exogenous iron [3]: fully rescued | rescue of inhibition by zinc [3]: did not rescue | FICI [1]: 0.63 | FICI in combination with CPO [1]: 0.37

O=C(O)CC(=O)O [malonate]
MIC80 ([1]; read-out: MIC80 alone, malonate): 25 µM (≈ 2.6 µg/mL)

CO/C(=C/C(N)=O)[C@H](C)[C@H](/C=C/c1csc(-c2csc([C@@H](C)/C=C/C=C/C(C)C)n2)n1)OC [myxothiazol]
MIC80 alone, myxothiazol [1]: 5 µM (≈ 2.44 µg/mL)

Cc1ccc2ccc3ccc(C)nc3c2n1 [neocuproine]
MIC80 ([1]; read-out: MIC80 alone, neocuproine): 0.25 µM (≈ 0.0521 µg/mL)

C=C(C)[C@H]1Cc2c(ccc3c2O[C@@H]2COc4cc(OC)c(OC)cc4[C@@H]2C3=O)O1 [rotenone]
MIC80 ([1]; read-out: MIC80 alone, rotenone): 15 µM (≈ 5.92 µg/mL)
